In patent US20240262814A1, “MODULATORS OF TREX1” (Constellation Pharmaceuticals, Inc., priority 2021, published 2024):

Columns and labels:
human TREX1 = target: T1, human TREX1 (Homo sapiens, UniProt Q9NSU2); test: hTREX1 Biochemical Assay (fluorescence, dsDNA substrate degradation); settings: full length human TREX1, 4 h pre-incubation, 18 h reaction at 25° C.
T1 construct: N-terminally His-Tev tagged full length human TREX1; made in house; host or cells: E. coli
T1 sequence (Q9NSU2 1-314): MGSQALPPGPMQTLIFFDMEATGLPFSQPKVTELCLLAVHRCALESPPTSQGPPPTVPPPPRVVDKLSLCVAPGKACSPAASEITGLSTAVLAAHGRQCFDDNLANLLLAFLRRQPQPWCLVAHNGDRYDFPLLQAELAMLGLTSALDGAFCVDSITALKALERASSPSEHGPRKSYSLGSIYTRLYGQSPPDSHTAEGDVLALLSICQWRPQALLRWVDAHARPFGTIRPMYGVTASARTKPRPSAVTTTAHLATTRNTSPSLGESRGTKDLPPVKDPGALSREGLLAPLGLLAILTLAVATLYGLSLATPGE
Outline: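 His-Tev-tagged full-length E. coli-expressed enzyme (4 pM final) preincubated with compound 4 h at 25° C., then 60 nM quenched-fluorophore dsDNA added in Tris pH 7.4, 5 mM MgCl2, 1% DMSO. After 18 h at 25° C., EDTA-quenched; fluorescence 615 nm (ex 570 nm); IC50 from four-parameter fit versus EDTA and no-inhibitor controls.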

human TREX2 = target: T2, human TREX2 (Homo sapiens, UniProt Q9BQ50); test: hTREX2 Biochemical Assay (selectivity hTREX1 vs hTREX2); settings: biochemical selectivity for hTREX1 vs hTREX2
T2 construct: human TREX2 (residues M44-A279, expressed in E. coli); made in house; host or cells: E. coli
T2 sequence (Q9BQ50 44-279 isoform Q9BQ50-1): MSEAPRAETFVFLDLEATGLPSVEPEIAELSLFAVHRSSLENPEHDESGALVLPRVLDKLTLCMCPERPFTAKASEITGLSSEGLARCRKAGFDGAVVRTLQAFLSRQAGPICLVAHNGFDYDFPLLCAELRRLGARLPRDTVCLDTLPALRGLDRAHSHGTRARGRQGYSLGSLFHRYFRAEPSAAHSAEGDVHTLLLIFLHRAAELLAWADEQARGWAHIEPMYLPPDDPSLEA
Outline: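 His-Tev-tagged human TREX2 (M44-A279, E. coli-expressed) preincubated with compound (10-point dose-response) for 4 h at 25 °C in Tris pH 7.4 buffer with 5 mM MgCl2. Reaction then run with 60 nM TEX615/quencher dsDNA and 50 pM enzyme (1% DMSO) for 18 h at 25 °C and EDTA-quenched. Fluorescence read at 615 nm (ex 570 nm); IC50 by four-parameter fit against pre-quenched and no-inhibitor controls.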

Compound | IC50 (human TREX1) [nM] | hTREX1 vs hTREX2 selectivity (human TREX2)
CC(c1nc(C(=O)Nc2cnoc2)c(O)c(=O)n1C)C(c1ccccc1C#N)c1ccccc1C#N (single isomer, unassigned) [Example 4 Isomer 2] | < 1 | C (C = >50 fold selective for hTREX1)
CC(c1nc(C(=O)Nc2cnoc2)c(O)c(=O)n1C)C(c1cc(F)cc(F)c1)c1ccccc1C#N (single isomer, unassigned) [Example 11 Isomer 3] | < 1 | B (B = 25 to 50 fold selective for hTREX1)
CC(c1nc(C(=O)Nc2cnoc2)c(O)c(=O)n1C)C(c1ccccc1)c1cc(F)ccc1C#N (single isomer, unassigned) [Example 6 Isomer 4] | < 1 | B (B = 25 to 50 fold selective for hTREX1)
CC(c1nc(C(=O)Nc2cnoc2)c(O)c(=O)n1C)C(c1ccccc1)c1ccccc1C#N (single isomer, unassigned) [Example 3 Isomer 4] | < 1 | B (B = 25 to 50 fold selective for hTREX1)
CC(c1nc(C(=O)Nc2cnoc2)c(O)c(=O)n1C)C(c1ccccc1)c1cc(Cl)ccc1C#N (single isomer, unassigned) [Example 8 Isomer 2] | < 1 | C (C = >50 fold selective for hTREX1)
C[C@H](c1nc(C(=O)Nc2cnoc2)c(O)c(=O)n1C)[C@H](c1ccccc1)c1ccccc1Cl (single isomer, unassigned) [Example 2 Isomer 3, 2-(1-(2-chlorophenyl)-1-phenylpropan-2-yl)-5-hydroxy-N-(isoxazol-4-yl)-1-methyl-6-oxo-1,6-dihydropyrimidine-4-carboxamide] | < 1 | B (B = 25 to 50 fold selective for hTREX1)
CC(c1nc(C(=O)Nc2cnoc2)c(O)c(=O)n1C)C(c1ccccc1)c1cc(C(=O)N(C)C)ccc1C#N (single isomer, unassigned) [Example 17 Isomer 3] | < 1 | B (B = 25 to 50 fold selective for hTREX1)
CC(c1nc(C(=O)Nc2cnoc2)c(O)c(=O)n1C)C(c1ccccc1)c1ccccc1 (single isomer, unassigned) [Example 1 Isomer 2, 2-(1,1-diphenylpropan-2-yl)-5-hydroxy-N-(isoxazol-4-yl)-1-methyl-6-oxo-1,6-dihydro pyrimidine-4-carboxamide] | 1 to 10 | A (A = <25 fold selective for hTREX1)
CC(c1nc(C(=O)Nc2cnoc2)c(O)c(=O)n1C)C(c1ccccc1)c1ccc(Cl)cc1C#N (single isomer, unassigned) [Example 9 Isomer 4] | < 1 | B (B = 25 to 50 fold selective for hTREX1)
CC(c1nc(C(=O)Nc2cnoc2)c(O)c(=O)n1C)C(c1ccccc1)c1ccccc1 (single isomer, unassigned) [Example 1 Isomer 1, 2-(1,1-diphenylpropan-2-yl)-5-hydroxy-N-(isoxazol-4-yl)-1-methyl-6-oxo-1,6-dihydro pyrimidine-4-carboxamide] | > 100 | A (A = <25 fold selective for hTREX1)

Results, then the compound that gave them:

IC50 (human TREX1) [nM] | hTREX1 vs hTREX2 selectivity (human TREX2) | Compound
< 1 | C (C = >50 fold selective for hTREX1) | C[C@H](c1nc(C(=O)Nc2cnoc2)c(O)c(=O)n1C)C(c1ccccc1Cl)c1ccccc1Cl (single isomer, unassigned) [Example 15 Isomer 1, 2-(1,1-bis(2-chlorophenyl)propan-2-yl)-5-hydroxy-N-(isooxazol-4-yl)-1-methyl-6-oxo-1,6-dihydropyrimidine-4-carboxamide]
< 1 | C (C = >50 fold selective for hTREX1) | CC(c1nc(C(=O)Nc2cnoc2)c(O)c(=O)n1C)C(c1ccccc1Cl)c1ccccc1C#N (single isomer, unassigned) [Example 10 Isomer 1]
< 1 | C (C = >50 fold selective for hTREX1) | Cn1c([C@@H](C(c2ccccc2C#N)c2ccccc2C#N)C(F)(F)F)nc(C(=O)Nc2cnoc2)c(O)c1=O (single isomer, unassigned) [Example 21 Isomer 1, 2-(3,3-bis(2-cyanophenyl)-1,1,1-trifluoropropan-2-yl)-5-hydroxy-N-(isoxazol-4-yl)-1-methyl-6-oxo-1,6-dihydropyrimidine-4-carboxamide]
1 to 10 | C (C = >50 fold selective for hTREX1) | C[C@H](c1nc(C(=O)Nc2cnoc2)c(O)c(=O)n1C)[C@H](c1ccccc1)c1ccccc1C(F)(F)F (single isomer, unassigned) [Example 14 Isomer 2, 5-Hydroxy-N-(isoxazol-4-yl)-1-methyl-6-oxo-2-(1-phenyl-1-(2-(trifluoromethyl)phenyl)propan-2-yl)-1,6-dihydropyrimidine-4-carboxamide]
10 to 100 | A (A = <25 fold selective for hTREX1) | Cn1c([C@H](C(c2ccccc2)c2ccccc2)C(F)(F)F)nc(C(=O)Nc2cnoc2)c(O)c1=O (single isomer, unassigned) [Example 20 Isomer 1, 5-Hydroxy-N-(isoxazol-4-yl)-1-methyl-6-oxo-2-(1,1,1-trifluoro-3,3-diphenylpropan-2-yl)-1,6-dihydropyrimidine-4-carboxamide]
